Data as given in ChEMBL document CHEMBL4038272, “Synthesis and biological evaluation of novel podophyllotoxin-NSAIDs conjugates as multifunctional anti-MDR agents against resistant human hepatocellular carcinoma Bel-7402/5-FU cells” (Eur J Med Chem, 2017).
Active and inactive are the calls of the source. The rule behind the calls is not given here.

Tests used:
[1] = system: Bel7402/5-FU; experiment: Effect on MRP1 expression in human Bel7402/5-FU cells assessed as ratio of MRP1 to beta-actin level at 2 uM after 48 hrs by Western blot analysis (reference value: 0.58); type: functional
[2] = system: Bel7402/5-FU; experiment: Effect on VEGFR2 expression in human Bel7402/5-FU cells assessed as ratio of VEGFR2 to beta-actin level at 2 uM after 48 hrs by Western blot analysis (reference value: 0.25); type: functional
[3] = system: Bel7402/5-FU; experiment: Antimigratory activity in human Bel7402/5-FU cells at 2 uM after 24 hrs by wound healing assay; type: functional, cell-based
[4] = system: Bel7402/5-FU; experiment: Effect on CDK1 expression in human Bel7402/5-FU cells assessed as ratio of CDK1 to beta-actin level at 2 uM after 48 hrs by Western blot analysis (reference value: 0.33); type: functional
[5] = system: Bel7402/5-FU; experiment: Induction of apoptosis in human Bel7402/5-FU cells assessed as necrotic cells at 2 uM after 48 hrs by Annexin V-APC/7-AAD staining based flow cytometry (reference value: 0.58%); type: functional
[6] = target: Signal transducer and activator of transcription 3 (Homo sapiens) (UniProt P40763); experiment: Effect on STAT3 phosphorylation in human Bel7402/5-FU cells assessed as ratio of phosphorylated STAT3 to beta-actin level at 2 uM after 48 hrs by Western blot analysis (reference value: 0.3); type: cell-based
Chain of Signal transducer and activator of transcription 3 (Homo sapiens) (P40763 whole entry): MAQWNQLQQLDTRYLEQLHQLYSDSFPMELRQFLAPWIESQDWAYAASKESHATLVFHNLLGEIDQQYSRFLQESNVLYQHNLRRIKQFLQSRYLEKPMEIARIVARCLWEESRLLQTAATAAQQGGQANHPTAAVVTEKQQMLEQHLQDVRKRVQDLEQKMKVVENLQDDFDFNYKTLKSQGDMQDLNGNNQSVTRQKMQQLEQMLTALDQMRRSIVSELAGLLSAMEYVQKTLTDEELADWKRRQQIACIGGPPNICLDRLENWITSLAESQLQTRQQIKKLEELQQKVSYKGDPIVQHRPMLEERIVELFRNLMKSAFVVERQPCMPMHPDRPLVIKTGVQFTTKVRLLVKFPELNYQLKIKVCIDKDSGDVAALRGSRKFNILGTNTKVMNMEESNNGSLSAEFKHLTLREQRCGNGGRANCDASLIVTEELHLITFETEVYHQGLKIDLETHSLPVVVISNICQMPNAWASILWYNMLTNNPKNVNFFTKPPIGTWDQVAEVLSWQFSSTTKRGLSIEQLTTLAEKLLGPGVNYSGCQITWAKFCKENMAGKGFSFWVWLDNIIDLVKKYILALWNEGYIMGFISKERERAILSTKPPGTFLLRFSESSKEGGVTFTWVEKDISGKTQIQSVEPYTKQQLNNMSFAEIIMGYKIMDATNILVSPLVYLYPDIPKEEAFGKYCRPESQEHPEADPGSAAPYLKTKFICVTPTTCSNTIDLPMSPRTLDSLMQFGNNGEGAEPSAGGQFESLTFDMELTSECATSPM

[7] = system: Bel7402/5-FU; experiment: Induction of apoptosis in human Bel7402/5-FU cells assessed as ratio of cleaved PARP to beta-actin level at 2 uM after 48 hrs by Western blot analysis (reference value: 0.2); type: functional
[8] = system: Bel7402/5-FU; experiment: Effect on COX1 expression in human Bel7402/5-FU cells assessed as ratio of COX1 to beta-actin level at 2 uM after 48 hrs by Western blot analysis (reference value: 0.48); type: functional
[9] = system: Bel7402/5-FU; experiment: Induction of apoptosis in human Bel7402/5-FU cells assessed as condensed nuclei at 2 uM after 24 hrs by Hoechst 33342 staining based fluorescent microscopic method; type: functional, cell-based
[10] = system: Bel7402/5-FU; experiment: Effect on cyclinA expression in human Bel7402/5-FU cells assessed as ratio of cyclinA to beta-actin level at 2 uM after 48 hrs by Western blot analysis (reference value: 0.39); type: functional
[11] = system: Bel7402/5-FU; experiment: Effect on cyclinB1 expression in human Bel7402/5-FU cells assessed as ratio of cyclinB1 to beta-actin level at 2 uM after 48 hrs by Western blot analysis (reference value: 0.53); type: functional
[12] = target: Mitogen-activated protein kinase; ERK1/ERK2 (Homo sapiens) (UniProt P27361+P28482); experiment: Effect on ERK1/2 phosphorylation in human Bel7402/5-FU cells assessed as ratio of phosphorylated ERK1/2 to beta-actin level at 2 uM after 48 hrs by Western blot analysis (reference value: 0.59); type: cell-based
Chain of Mitogen-activated protein kinase; ERK1/ERK2 (Homo sapiens) (P27361 whole entry, looked up): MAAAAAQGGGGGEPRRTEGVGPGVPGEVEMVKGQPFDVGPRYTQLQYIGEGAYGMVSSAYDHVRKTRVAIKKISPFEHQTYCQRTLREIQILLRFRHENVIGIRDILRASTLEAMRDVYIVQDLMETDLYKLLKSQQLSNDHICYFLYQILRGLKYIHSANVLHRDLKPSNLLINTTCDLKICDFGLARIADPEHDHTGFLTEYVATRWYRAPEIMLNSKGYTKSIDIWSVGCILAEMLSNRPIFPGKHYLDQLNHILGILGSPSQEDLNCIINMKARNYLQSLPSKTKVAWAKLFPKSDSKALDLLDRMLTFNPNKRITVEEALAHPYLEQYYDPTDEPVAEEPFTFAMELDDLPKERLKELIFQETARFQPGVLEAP
Chain of Mitogen-activated protein kinase; ERK1/ERK2 (Homo sapiens) (P28482 whole entry, looked up): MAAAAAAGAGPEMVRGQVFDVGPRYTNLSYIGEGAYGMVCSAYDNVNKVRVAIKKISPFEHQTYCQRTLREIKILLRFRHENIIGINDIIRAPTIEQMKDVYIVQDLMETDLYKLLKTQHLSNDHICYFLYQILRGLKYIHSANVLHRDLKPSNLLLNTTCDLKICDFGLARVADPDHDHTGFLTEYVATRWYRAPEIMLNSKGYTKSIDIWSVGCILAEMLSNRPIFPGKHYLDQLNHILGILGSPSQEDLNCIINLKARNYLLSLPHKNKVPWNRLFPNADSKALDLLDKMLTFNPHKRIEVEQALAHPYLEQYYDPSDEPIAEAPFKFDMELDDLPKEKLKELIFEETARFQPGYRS

[13] = Resistant factor, ratio of IC50 for human Bel7402/5-FU cells to IC50 for human Bel7402 cells; type: functional
[14] = system: Bel7402/5-FU; experiment: Effect on iNOS expression in human Bel7402/5-FU cells assessed as ratio of iNOS to beta-actin level at 2 uM after 48 hrs by Western blot analysis (reference value: 0.13); type: functional
[15] = system: Bel7402/5-FU; experiment: Cell cycle arrest in human Bel7402/5-FU cells assessed as accumulation at G2 phase at 2 uM after 48 hrs by propidium iodide staining based flow cytometry (reference value: 35.16%); type: functional
[16] = system: Bel7402/5-FU; experiment: Effect on CDK2 expression in human Bel7402/5-FU cells assessed as ratio of CDK2 to beta-actin level at 2 uM after 48 hrs by Western blot analysis (reference value: 0.43); type: functional
[17] = system: Bel7402/5-FU; experiment: Induction of apoptosis in human Bel7402/5-FU cells assessed as morphological changes at 2 uM after 24 hrs by Hoechst 33342 staining based fluorescent microscopic method; type: functional, cell-based
[18] = system: Bel7402/5-FU; experiment: Cell cycle arrest in human Bel7402/5-FU cells assessed as accumulation at S phase at 2 uM after 48 hrs by propidium iodide staining based flow cytometry (reference value: 12.62%); type: functional
[19] = system: L02; experiment: Antiproliferative activity against human LO2 cells after 72 hrs by CCK-8 assay; type: cell-based; settings: L02, 72 h
[20] = system: Bel7402/5-FU; experiment: Effect on MMP2 expression in human Bel7402/5-FU cells assessed as ratio of MMP2 to beta-actin level at 2 uM after 48 hrs by Western blot analysis (reference value: 0.3); type: functional
[21] = system: Bel7402/5-FU; experiment: Induction of apoptosis in human Bel7402/5-FU cells assessed as early apoptotic cells at 2 uM after 48 hrs by Annexin V-APC/7-AAD staining based flow cytometry (reference value: 5.24%); type: functional
[22] = system: Bel7402/5-FU; experiment: Effect on COX2 expression in human Bel7402/5-FU cells assessed as ratio of COX2 to beta-actin level at 2 uM after 48 hrs by Western blot analysis (reference value: 0.36); type: functional
[23] = system: Bel7402/5-FU; experiment: Induction of apoptosis in human Bel7402/5-FU cells assessed as live cells at 2 uM after 48 hrs by Annexin V-APC/7-AAD staining based flow cytometry (reference value: 91.08%); type: functional
[24] = system: Bel7402/5-FU; experiment: Induction of apoptosis in human Bel7402/5-FU cells assessed as ratio of cleaved caspase-3 to beta-actin level at 2 uM after 48 hrs by Western blot analysis (reference value: 0.19); type: functional
[25] = system: Bel7402/5-FU; experiment: Induction of apoptosis in human Bel7402/5-FU cells at 2 uM after 24 hrs by Hoechst 33342 staining based fluorescent microscopic method; type: functional, cell-based
[26] = system: Bel-7402; experiment: Antiproliferative activity against human Bel7402 cells after 72 hrs by CCK-8 assay; type: functional, cell-based; settings: Bel-7402, 72 h
[27] = system: Bel7402/5-FU; experiment: Effect on P-gp expression in human Bel7402/5-FU cells assessed as ratio of P-gp to beta-actin level at 2 uM after 48 hrs by Western blot analysis (reference value: 0.59); type: functional
[28] = system: Bel7402/5-FU; experiment: Reduction in microtubule density in human Bel7402/5-FU cells at 2 uM after 24 to 48 hrs by DAPI staining based immunofluorescence microscopic method; type: functional, cell-based
[29] = system: Bel7402/5-FU; experiment: Induction of apoptosis in human Bel7402/5-FU cells assessed as ratio of cleaved caspase-9 to beta-actin level at 2 uM after 48 hrs by Western blot analysis (reference value: 0.17); type: functional
[30] = system: Bel7402/5-FU; experiment: Effect on E-cadherin expression in human Bel7402/5-FU cells assessed as ratio of E-cadherin to beta-actin level at 2 uM after 48 hrs by Western blot analysis (reference value: 0.2); type: functional
[31] = system: Bel7402/5-FU; experiment: Induction of microtubule disruption in human Bel7402/5-FU cells at 2 uM after 24 to 48 hrs by DAPI staining based immunofluorescence microscopic method; type: functional, cell-based
[32] = system: Bel7402/5-FU; experiment: Induction of apoptosis in human Bel7402/5-FU cells assessed as ratio of cleaved caspase-8 to beta-actin level at 2 uM after 48 hrs by Western blot analysis (reference value: 0.17); type: functional
[33] = system: Bel7402/5-FU; experiment: Antiproliferative activity against human Bel7402/5-FU cells after 72 hrs by CCK-8 assay; type: functional, cell-based
[34] = target: RAC-alpha serine/threonine-protein kinase (Homo sapiens) (UniProt P31749); experiment: Effect on AKT phosphorylation in human Bel7402/5-FU cells assessed as ratio of phosphorylated AKT to beta-actin level at 2 uM after 48 hrs by Western blot analysis (reference value: 0.39); type: cell-based
Chain of RAC-alpha serine/threonine-protein kinase (Homo sapiens) (P31749 whole entry): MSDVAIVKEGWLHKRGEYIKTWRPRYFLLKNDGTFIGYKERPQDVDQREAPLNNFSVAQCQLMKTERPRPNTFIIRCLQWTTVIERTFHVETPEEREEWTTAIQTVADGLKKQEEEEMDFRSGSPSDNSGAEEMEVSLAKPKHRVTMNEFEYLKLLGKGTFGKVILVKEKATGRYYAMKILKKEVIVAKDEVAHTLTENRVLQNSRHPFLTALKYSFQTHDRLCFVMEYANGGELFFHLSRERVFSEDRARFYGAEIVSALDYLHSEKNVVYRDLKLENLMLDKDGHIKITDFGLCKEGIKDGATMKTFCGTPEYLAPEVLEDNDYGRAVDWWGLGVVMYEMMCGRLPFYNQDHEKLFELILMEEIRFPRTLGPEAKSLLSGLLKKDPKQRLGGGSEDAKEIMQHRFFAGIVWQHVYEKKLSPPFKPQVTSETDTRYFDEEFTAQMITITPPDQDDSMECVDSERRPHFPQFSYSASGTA

[35] = system: Bel7402/5-FU; experiment: Induction of apoptosis in human Bel7402/5-FU cells assessed as reduction in cell number at 2 uM after 24 hrs by Hoechst 33342 staining based fluorescent microscopic method; type: functional
[36] = system: Bel7402/5-FU; experiment: Cell cycle arrest in human Bel7402/5-FU cells assessed as accumulation at G1 phase at 2 uM after 48 hrs by propidium iodide staining based flow cytometry (reference value: 52.21%); type: functional
[37] = system: Bel7402/5-FU; experiment: Induction of apoptosis in human Bel7402/5-FU cells assessed as late apoptotic cells at 2 uM after 48 hrs by Annexin V-APC/7-AAD staining based flow cytometry (reference value: 3%); type: functional

With `COc1ccc2c(c1)c(CC(=O)O[C@H]1c3cc4c(cc3[C@@H](c3cc(OC)c(OC)c(OC)c3)[C@H]3C(=O)OC[C@@H]31)OCO4)c(C)n2C(=O)c1ccc(Cl)cc1` the Ratio [1] was 0.39, the Ratio [2] was 0.17 and the Activity [3] was “Active”. The Ratio [4] was 0.3, the Activity [5] was 7.18% and the Ratio [6] was 0.37. For the same compound, the Ratio [7] was 0.35, the Ratio [8] was 0.42 and the Activity [9] was “Active”. For the same compound, the Ratio [10] was 0.26, the Ratio [11] was 0.51 and the Ratio [12] was 0.54. For the same compound, the “Ratio IC50” value [13] was 0.36, the Ratio [14] was 0.12 and the Activity [15] was 51.09%. The Ratio [16] was 0.37, the Activity [17] was “Active” and the Activity [18] was 21.81%. It also gave an IC50 [19] of 1860 nM, a Ratio [20] of 0.28 and an Activity [21] of 5.19%. For the same compound, the Ratio [22] was 0.36, the Activity [23] was 66.98% and the Ratio [24] was 0.45. For the same compound, the Activity [25] was “Active”, the IC50 [26] was 5900 nM and the Ratio [27] was 0.63. For the same compound, the Activity [28] was “Active”, the Ratio [29] was 0.33 and the Ratio [30] was 0.2. The Activity [31] was “Active”, the Ratio [32] was 0.33 and the IC50 [33] was 2160 nM. For the same compound, the Ratio [34] was 0.4, the Activity [35] was “Active” and the Activity [36] was 27.1%. For the same compound, the Activity [37] was 20.65%.
